Experimental data published in the supplement of paper PMC10307832.

Key:
Assay in all cases: relative viability (nuclei count vs DMSO), 5 days (fraction); higher = more cells survive
Sulindac + Bortezomib = compound: CC1=C(CC(=O)O)c2cc(F)ccc2/C1=C\c1ccc([S+](C)[O-])cc1 [Sulindac] + CC(C)C[C@H](NC(=O)[C@H](Cc1ccccc1)NC(=O)c1cnccn1)B(O)O [Bortezomib] (partner 0.002 µM)
Outline: (§1)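 Relative viability equals treated-well nuclei counts divided by vehicle-well nuclei counts. Counts came from 4× images of lung cancer cell lines grown in 1536-well plates for 5 days after pin-tool dosing on the day after seeding. Dosing used one drug alone or a fixed anchor-drug dose plus five library-drug doses (not always all listed) in √10 steps, and values are medians of duplicate plates.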

Sulindac + Pictilisib = compound: CC1=C(CC(=O)O)c2cc(F)ccc2/C1=C\c1ccc([S+](C)[O-])cc1 [Sulindac] + CS(=O)(=O)N1CCN(Cc2cc3nc(-c4cccc5[nH]ncc45)nc(N4CCOCC4)c3s2)CC1 [Pictilisib] (partner 1 µM)
Outline: as §1

[1] = compound: CN[C@@H]1C[C@H]2O[C@@](C)([C@@H]1OC)n1c3ccccc3c3c4c(c5c6ccccc6n2c5c31)C(=O)NC4 [Staurosporine] + N=C(N)NC(=N)NCCc1ccccc1 [Phenformin] (partner 250 µM)
Outline: as §1

[2] = compound: CN[C@@H]1C[C@H]2O[C@@](C)([C@@H]1OC)n1c3ccccc3c3c4c(c5c6ccccc6n2c5c31)C(=O)NC4 [Staurosporine] + Nc1ncn([C@H]2C[C@H](O)[C@@H](CO)O2)c(=O)n1 [Decitabine] (partner 2 µM)
Outline: as §1

| Cell Line | relative viability (Sulindac + Bortezomib; first compound 0.08 µM) | relative viability (Sulindac + Bortezomib; first compound 0.253 µM) | relative viability (Sulindac + Bortezomib; first compound 2.53 µM) | relative viability (Sulindac + Bortezomib; first compound 8 µM) | relative viability (Sulindac + Pictilisib; first compound 0.08 µM) | relative viability (Sulindac + Pictilisib; first compound 0.253 µM) | relative viability (Sulindac + Pictilisib; first compound 2.53 µM) | relative viability (Sulindac + Pictilisib; first compound 8 µM) | relative viability ([1]; first compound 0.005 µM) | relative viability ([1]; first compound 0.05 µM) | relative viability ([1]; first compound 0.1581 µM) | relative viability ([1]; first compound 0.5 µM) | relative viability ([2]; first compound 0.005 µM) | relative viability ([2]; first compound 0.01581 µM) | relative viability ([2]; first compound 0.05 µM) | relative viability ([2]; first compound 0.1581 µM) | relative viability ([2]; first compound 0.5 µM) | relative viability (Sulindac + Bortezomib; first compound 0.8 µM) | relative viability (Sulindac + Pictilisib; first compound 0.8 µM) | relative viability ([1]; first compound 0.01581 µM) |
| --- | --- | --- | --- | --- | --- | --- | --- | --- | --- | --- | --- | --- | --- | --- | --- | --- | --- | --- | --- | --- |
| HARA | 1.2 | 1.09 | 1.14 | 1.44 | 0.302 | 0.507 | 0.374 | 0.452 | 0.374 | 0.211 | 0.133 | 0.0495 | 0.479 | 0.334 | 0.249 | 0.15 | 0.179 | – | – | – |
| HCC-15 | 1.34 | 1.08 | 1.07 | 1.07 | 0.861 | 0.817 | 0.735 | 0.814 | 0.344 | 0.19 | 0.112 | 0.0964 | 0.436 | – | 0.274 | 0.134 | 0.106 | 0.676 | 0.526 | – |
| HCC-44 | 0.89 | 0.882 | 0.904 | 0.966 | 0.403 | 0.562 | 0.687 | 0.589 | 0.104 | 0.0757 | 0.0829 | 0.0953 | 0.937 | – | 0.661 | 0.302 | 0.275 | 0.853 | 0.537 | 0.0863 |
| HCC-78 | 0.432 | 0.534 | 0.607 | 0.532 | 0.309 | 0.269 | 0.183 | 0.246 | 0.639 | 0.486 | 0.376 | 0.287 | 0.76 | 0.617 | 0.627 | 0.444 | 0.49 | 0.379 | 0.207 | 0.45 |
| IA-LM | 0.811 | 0.91 | 0.977 | 0.89 | 0.439 | 0.371 | 0.352 | 0.419 | – | – | – | – | – | – | – | – | – | – | – | – |
| LK-2 | – | – | – | – | 0.551 | 0.675 | – | 0.558 | 0.676 | – | 0.127 | 0.126 | 0.327 | 0.173 | 0.369 | 0.0995 | 0.0618 | – | – | – |
| NCI-H358 | – | – | – | – | 0.262 | 0.324 | 0.269 | 0.352 | 0.337 | 0.0848 | 0.0499 | 0.0405 | 0.244 | 0.213 | 0.121 | 0.0796 | 0.0666 | – | 0.316 | 0.0847 |
| NCI-H522 | – | – | – | – | – | – | – | – | 0.783 | 0.594 | 0.41 | 0.405 | 0.502 | 0.678 | 0.643 | 0.617 | 0.564 | – | – | – |
| NCI-H1299 | 1.09 | 1.04 | 1.03 | 1.05 | 0.671 | 0.9 | 0.778 | 0.878 | – | – | – | – | – | – | – | – | – | 1.04 | 0.651 | – |
| NCI-H1395 | – | – | – | – | 0.705 | 0.603 | 0.527 | 0.879 | 0.462 | 0.382 | 0.301 | 0.241 | 0.76 | 0.596 | 0.454 | 0.314 | 0.27 | – | 0.872 | 0.292 |
| NCI-H1563 | 0.848 | 0.876 | 0.779 | 0.925 | 0.609 | 0.662 | 0.65 | 0.622 | 0.566 | 0.577 | 0.506 | 0.416 | – | – | – | – | – | 0.793 | 0.665 | 0.533 |
| NCI-H1623 | – | – | – | – | – | – | – | – | 0.574 | 0.631 | 0.59 | 0.306 | – | – | – | – | – | – | – | 0.578 |
| NCI-H1648 | – | – | – | – | – | – | – | – | – | – | – | – | 0.43 | 0.223 | 0.28 | 0.313 | 0.287 | – | – | – |
| NCI-H1703 | 0.303 | 0.394 | 0.457 | 0.284 | 0.229 | 0.238 | 0.229 | 0.291 | – | – | – | – | – | – | – | – | – | 0.225 | 0.219 | – |
| NCI-H1793 | – | – | – | – | 0.275 | 0.329 | 0.351 | 0.344 | 0.453 | 0.357 | – | 0.129 | 0.341 | – | 0.311 | 0.125 | 0.191 | – | 0.271 | – |
| NCI-H1944 | – | – | – | – | 0.345 | 0.347 | 0.342 | 0.388 | 0.19 | 0.141 | 0.102 | 0.0775 | 0.41 | 0.354 | 0.401 | 0.326 | 0.278 | – | 0.325 | 0.11 |
| NCI-H2170 | – | – | – | – | 0.274 | 0.288 | 0.294 | 0.322 | 0.364 | 0.354 | 0.14 | 0.157 | 0.492 | – | 0.431 | 0.354 | 0.229 | – | 0.291 | – |
| NCI-H2228 | 1.31 | 1.02 | 1.31 | 1.01 | 0.488 | 0.407 | 0.383 | 0.603 | 0.254 | 0.11 | 0.0655 | 0.0891 | – | – | – | – | – | 0.45 | 0.244 | 0.166 |
| NCI-H2342 | – | – | – | – | – | – | – | – | 0.686 | 0.427 | 0.301 | 0.281 | 0.772 | 0.687 | 0.513 | 0.553 | 0.372 | – | – | – |
| SK-MES-1 | – | – | – | – | 0.368 | 0.427 | 0.362 | 0.459 | 0.345 | 0.185 | 0.132 | 0.219 | 0.32 | 0.239 | 0.204 | 0.136 | 0.121 | – | 0.323 | 0.267 |
| SW 900 | – | – | – | – | – | – | – | – | 0.364 | 0.189 | 0.111 | 0.127 | 0.531 | 0.39 | 0.394 | 0.262 | 0.25 | – | – | 0.184 |
